In US7323436B2, “Adduct having an acidic solution of sparingly-soluble group IIA complexes” (priority 1999, dated 2008):

Experiment: Contact with human skin and nose
Type: in vivo
Conditions: pH of less than 0.5
Description: As discussed above, AGIIS has relatively less dehydrating properties (such as charring sucrose) as compared to the saturated solution of CaSO4 in the same concentration of H2SO4. […] AGIIS is non-volatile at room temperature.

O=S(=O)(O)O [sulfuric acid]
irritation of a hand put into the solution: an irritation would occur within a relatively short span of time
